Results from patent US20250281629A1, “COMPOSITIONS AND METHODS FOR ANTI-PHOSPHOCHOLINE ACTIVE IMMUNOTHERAPY” (Duke University, priority 2022, published 2025).
Where no end group is shown, it is not given here. C11H22NO6P = phosphorylcholine group attached via 2-methacryloyloxyethyl phosphorylcholine

Key:
macrophages (F4/80+) = assay: Nanofiber uptake in i.p. lavage cells, flow cytometry: macrophages; type: in vivo, mouse; settings: 4 hours after i.p. injection of TAMRA-labeled nanofibers
Experimental: (§1) Nanofiber Uptake and Evaluation. The cell types present and their propensity to uptake nanofibers in the i.p. space was tested by injecting mice i.p. with 100 μL of 2 mM TAMRA-labeled fluorescent nanofibers. 4 hours later, mice were euthanized and i.p. lavage was conducted via the injection of 2 mL of cold 1×PBS into the peritoneal cavity and massaging the abdomen for 30 seconds. The solution was then carefully extracted from the i.p. space and the cells were isolated followed by rinsing with ice cold flow buffer (2% heat-inactivated FBS in 1×PBS). The cells present were treated with mouse BD Fc Block (Clone: 2.4G2) (BD Biosciences, 553142) in flow buffer on ice for 30 min and then washed and stained with antibodies against the following markers: CD5-APC (Clone: 53-7.3) (BioLegend, 100626), F4/80-PerCP/Cy5.5 (Clone: BM8) (BioLegend, 123128), CD19-APC/Cy7 (Clone: 6D5) (BioLegend, 115530), CD11c-PE/Cy7 (Clone: N418) (BioLegend, 117318), and CD86-BV605 (Clone: GL1) (BD Biosciences, 2272591) in flow buffer for 30 min on ice. TAMRA-fluorescence as an indication of nanofiber uptake was measured on the PE channel. Cells were then washed in flow buffer and stained with DAPI. Flow cytometry was conducted on a BD FACSCanto II cytometer and the results were analyzed using FlowJo software.

B1a cells (CD19+CD5+) = assay: Nanofiber uptake in i.p. lavage cells, flow cytometry: B1a cells; type: in vivo, mouse
Experimental: as §1

[1] = Zeta potential of nanofibers; type: physicochemical; settings: 1 mM conjugate coassembled with 1 mM Q11; 0.2 mM in 1×PBS, 25° C.
Experimental: Zeta Potential. Nanofibers were diluted to 0.2 mM in 1×PBS and zeta potential measurements were conducted at 25° C. using an Anton Paar Litesizer 500.

[2] = system: mouse anti-PC IgM monoclonal antibody (Clone: BH8); assay: ELISA for measuring nanofiber epitope reactivity; type: binding; settings: nanofibers coated at 0.2 mM; PC-BSA positive control
Experimental: ELISA for Measuring Nanofiber Epitope Reactivity. The reactivity of PC conjugation methods was determined via binding of a mouse anti-PC IgM monoclonal antibody (Clone: BH8) (Sigma, MABF2084) to nanofibers. Nanofibers were diluted to 0.2 mM and coated onto 96-well plates at 4° C. overnight. PC-BSA (Biosearch Technologies, PC-1011-10) was coated at 20 μg/mL in 1×PBS overnight as a positive control, and PBS was used as a negative control. The next day, the plates were washed using 1×PBS with 0.05% Tween 20 (1×PBST) and then blocked with Superblock blocking buffer solution (Thermo Fisher, 37515) three times. This was followed by the addition anti-PC IgM which was serially diluted in 1% BSA in 1×PBST by 5-fold steps beginning from 1:100 (5 μg/mL) and allowed to incubate for 2 h at room temperature. Anti-PC IgM bound to nanofibers was then detected with HRP-conjugated goat anti-mouse IgM (Southern Biotech, 1021-05) and the absorbance values at 450 nm were measured.

[3] = system: non-B1a B cells (CD19+CD5−); assay: Nanofiber uptake in i.p. lavage cells, flow cytometry: non-B1a B cells; type: in vivo, mouse; settings: for non-B1a B cells that acquired nanofibers: 4 hours after i.p. injection of TAMRA-labeled nanofibers
Experimental: as §1

C57BL/6 mice = assay: Serum anti-PC antibody responses of immunized mice via ELISA (PC-BSA coated); type: in vivo, mouse
Experimental: Mice and Immunizations. Female C57BL/6 mice (Envigo) age 6-10 weeks were used to initiate experiments except for the Il10^−/− colitis study where female B6.129P2-Il10^tm1Cgn/J (The Jackson Laboratory) mice age 5-7 weeks were used. While female mice were used for most experiments, age-matched male C57BL/6 mice (Envigo) were used in a one cycle acute DSS colitis model to confirm efficacy across sexes. Mice were housed at Duke University. All experimental procedures were performed on protocols (A264-18-11 and A199-21-09) approved by the Duke University Institutional Animal Care and Use Committee (IACUC). For subcutaneous immunizations, anesthetized mice were injected once behind each shoulder with 50 μL of 2 mM peptide nanofiber solution or 1×PBS. For intraperitoneal immunizations, mice were injected with 100 μL of 2 mM peptide nanofiber solution or 1×PBS. Nanofiber immunizations with adjuvant contained 10 μg CpG (ODN 1826, IAX-200-002-3001, Innaxon). For injections of only CpG, 10 μg of CpG in 100 μL 1×PBS was used. Mice were typically given three immunizations, with the specific boosting schedules stated in each figure caption, usually at weeks 0, 2, and 4, as this was determined to produce robust antibody responses in a short time frame.
Detection of Anti-PC Antibody Responses via ELISA. Anti-PC antibody responses in serum collected from the submandibular vein in mice were measured using ELISA. Briefly, plates were coated with 20 μg/mL PC-BSA (Biosearch Technologies, PC-1011-10) in 1×PBS or just 1×PBS at 4° C. overnight. The next day, the plates were washed using 1×PBST (1×PBS with 0.05% Tween 20) and then blocked three times with Superblock blocking buffer solution (Thermo Fisher, 37515). Serum diluted from 1:10^2 to 1:10^5 in 1% BSA in 1×PBST was the added to the plate and allowed to incubate for 2 h at room temperature. Anti-PC IgG was detected using HRP-conjugated Fcγ fragment-specific goat anti-mouse IgG (Jackson Immuno Research, 15-035-071). IgG subclasses and IgM anti-PC antibodies were detected using Southern Biotech HRP-conjugated goat anti-mouse antibodies (IgG1, IgG2b, IgG2c, IgG3, & IgM: 5300-05B). Area under the curve (AUC) measurements were calculated using background-subtracted absorbance values at dilutions from 1:10^2 to 1:10^5. Antibody titers were defined using an absorbance cutoff above background of 0.2 OD, where titer 2 represents an OD value greater than 0.2 at 1:10^2 dilution and so on up to titer 5 at 1:10^5 dilution.

[4] = total TAMRA+ cells categorized by cell type

| Substance | macrophages staining positively for nanofibers (macrophages (F4/80+)) | CD86 activation marker on TAMRA+ B1a cells vs non-B1a cells (B1a cells (CD19+CD5+); 4 hours after i.p. injection) | zeta potential (surface charge) of nanofibers [1] | binding of anti-PC mAb to nanofibers [2] | TAMRA MFI of non-B1a B cells ([3]; 4 hours after i.p. injection) | non-B1a B cells that acquired nanofibers [3] | non-B1a B cells among total TAMRA+ cells [3, 4] | antibody response against PC-BSA (serum total anti-PC IgG) (C57BL/6 mice; s.c. or i.p., weeks 0, 3, 11, with PADRE-Q11, PC-Q11 vs pa-PC-Q11) | TAMRA MFI of B1a cells (B1a cells (CD19+CD5+); 4 hours after i.p. injection) | B1a cells stained positively for nanofibers (B1a cells (CD19+CD5+); 4 hours after i.p. injection of TAMRA-labeled nanofibers) | B1a cells among total TAMRA+ cells (B1a cells (CD19+CD5+); [4]) | non-B1a B cells in the peritoneal cavity (total cells) ([3]; compared with PC-Q11, Q11, or PBS alone) | anti-PC antibody levels on increasing epitope content 2.5 times (C57BL/6 mice; 0.5 mM (25%) vs 0.2 mM (10%) PCM-Q11, i.p. with CpG) | anti-PC IgG responses, PCM-Q11 vs PC-Q11 (C57BL/6 mice; i.p., weeks 0, 2, 4, both coassembled with PADRE-Q11) |
| --- | --- | --- | --- | --- | --- | --- | --- | --- | --- | --- | --- | --- | --- | --- |
| C11H22NO6P-CSGSG-QQKFQFQFEQQ-NH2 (C(C11H22NO6P)SGSGQQKFQFQFEQQ-NH2) [PC-Q11, phosphodiester PC-Q11] | almost all macrophages staining positively for nanofibers | not seen | neutrally charged | bound | selective uptake | over 80% | acquired primarily by non-B1a B cells | significantly greater antibody response |  |  |  |  |  |  |
| (C11H22NO6P)n-CCCCSGSG-QQKFQFQFEQQ-NH2 (CCCCSGSGQQKFQFQFEQQ-NH2; not fully specified; cysteine pairing not given here; also: phosphorylcholine groups (C11H22NO6P) n=1-4, attachment not placed) [PCM-Q11, linear multi-PC conjugate] | almost all macrophages staining positively for nanofibers | selective elevation on B1a cells |  | increased binding of an anti-PC mAb compared to PC-Q11 nanofibers and PC-BSA |  | < 30% |  |  | selective uptake | about 75% | acquired by a substantial B1a cell population | reduction in non-B1a B cells | no significant change in the response elicited | significantly greater than i.p. immunization with PC-Q11 |
